The record followed here is paper PMC4838890, “Dynamic and flexible H3K9me3 bridging via HP1β dimerization establishes a plastic state of condensed chromatin” (Nature Communications, 2016).

Like-named read-outs stand apart in the source and are kept apart here.

One assay has as its system H3K9me3 oligonucleosomes. As to the kind of experiment: Chromatin sedimentation (clustering), H3K9me3 oligonucleosomes. In kind it is biochemical, Xenopus laevis. Conditions: for chromatin clustering/aggregation, H3K9me3: saturating protein (5 μM) or titration, EtBr fluorescence, n=3. The procedure: Figure 3 hHP1β clusters oligonuclesomal arrays in dependence of H3K9me3. (a) Oligonucleosomes (2.5 nM) were incubated with increasing concentrations of hHP1β WT or I161A at 150 mM NaCl. DNA remaining in the supernatant after centrifugation was incubated with EtBr and measured by fluorescence reading. Data were normalized to amounts in absence of added protein. Averages of three independent experiments are plotted; error bars represent s.d.; n=3. (b) Analysis of the hydrodynamic radius of oligonucleosomes (10 nM; DNA labelled with ATTO 610) in the presence of increasing concentrations of hHP1β WT or I161A by FCS at 150 mM NaCl. For details on experimental setup see Supplementary Fig. 3. Error bars represent s.d.; n=3. (c) Oligonucleosomes were reconstituted after mixing H3K9me0 and H3K9me3 octamers at different ratio. Chromatin precipitation analysis at 150 mM NaCl was carried out with hHP1β WT at saturating concentration. Data are presented as in a. (d) Precipitation behaviour of oligonucleosomes (2.5 nM) was analysed at different concentrations of NaCl with hHP1β WT at saturating concentration. Data are presented as in a. (e) H3K9me3-containing chromatin was reconstituted using wild-type core histones or tailless H2A, H2B or H4. Oligonucleosomes (2.5 nM) were incubated with increasing concentrations of hHP1β WT at 150 mM NaCl. Data are presented as in a. (f) Chromatin coprecipitation of hHP1β with H3K9me3-containing oligonucleosomes reconstituted with wild-type or tailless core histones at the indicated concentrations of MgCl2. Precipitated material was analysed by western blotting. The region of the western blot membrane of the experiment at 7.5 mM MgCl2 containing histones was stained with Ponceau. (g) Oligonucleosomes at 50 mM NaCl were incubated with hHP1β WT or I161A. Complexes were fixed with 0.05% (v/v) glutaraldehyde, spotted on mica surfaces and analysed by scanning force microscopy. Control, no protein added; scale bar, 100 nm. (h) Quantification of results representatively shown in g according to the classification on the top: A, extended; B, partially condensed; C, fully condensed; D; aggregates; n>50 for each condition.
For saturating conditions, 2.7 nM oligonucleosomes were incubated with 5 μM hHP1β proteins in 100 μl sedimentation buffer (10 mM triethanolamine (pH 7.5), 150 mM NaCl, 0.1 mM EDTA) for 1 h on ice. For non-saturating conditions, 3 μM recombinant proteins were used and the NaCl concentration in the sedimentation buffer was lowered to 100 mM. After incubation, 40 μl per sample was placed into a well of a 96-well plate and kept as ‘input'. The rest was centrifuged at 16,100g for 30 min at 4°C. 40 μl supernatant was carefully removed and placed into a 96-well plate (‘output'). For quantification of chromatin DNA, the input and output samples were incubated with 40 μl 0.5 μg ml^−1 ethidium bromide and fluorescence was measured on a Plate CHAMELEON II fluorescence plate reader (Hidex, Turku, Finland) using a 360 nm (±5 nm) excitation filter and a 612 nm (±5 nm) emission filter. For each sample the ratio of DNA concentrations after and before centrifugation (output/input) was calculated.
Supplementary Table 1: Summary of conditions used in the different experiments of this study. experiment result modification template Temp. [NaCl] [MgCl2] […]
chromatin Fig. 1e,f; Fig. S1f-h; H3K9me3 oligo- 4 150 5 coprecipitation Fig. S2b nucleosomes
Fig. S7d,f; Fig.S9c nucleosomes […]
chromatin sedimentation Fig. 4a; H3K9me3 oligo- 4 150 0
(single point) Fig. S3b nucleosomes […]
chromatin sedimentation. oligo-(titration) Fig. 3a H3K9me3 nucleosomes 4 150 0 […]
crosslinking Fig. S6e,f nucleosomes […]
crosslinking Fig. S7a,b nucleosomes
EMSA Fig. 1g; Fig. 5c; n//a RT 100 5
1Preincubation of oligonucleosomes and h HP1β was performed at 4 °C . Measurements wer e carried out at the in dicated te mperature.
2in increments o f 0 .5 mM
3MgCl2 was added at the end of incubation to coprecipitate oligonucleosomes a nd bound hHP1β.

The test system of the next assay is H3KC9me3 mononucleosome. Nature of the assay: ITC, H3KC9me3 mononucleosome. In kind it is binding, Xenopus laevis. Conditions: for Kd: ITC, pH 7.5, 25°C, read-out: Kd (apparent dissociation constant). An excerpt:
Mononucleosomes were reconstituted on a 187 bp DNA fragment containing the ‘601' sequence flanked on each site by a linker of 20 bp[55]. Oligonucleosomes were reconstituted on a 12 × 200 bp × 601 template. Plasmids carrying the respective inserts were purified using a Giga kit (Qiagen, Hilden, Germany). Templates for reconstitution were released from plasmids by restriction digest with BsoBI for mononucleosomes and a mix of DdeI, BfuCI, HaeII and EcoRI for oligonucleosomes. To separate vector backbone from DNA used for chromatin assembly stepwise precipitation with polyethylene glycol (PEG) 6000/0.5 M NaCl was carried out (final PEG concentration 2–9% and 20% (w/v)). DNA pellets were washed with 70% (v/v) ethanol and dissolved in water. Double stranded, short, biotinylated DNA linkers were ligated to the DNA template before chromatin reconstitution.
ITC measurements were performed on a iTC200 calorimeter (Microcal, Malvern, UK) at 25°C in binding buffer (10 mM triethanolamine (pH 7.5), 20 or 150 mM NaCl, 0.1 mM EDTA). Reaction heats were recorded by sequences of 37 injections of 1.8 mM hHP1β, spaced at 120 s intervals, into 250 μl of 60 μM H3 peptides, nucleosomes or oligonucleosomal arrays under constant stirring at 1,000 r.p.m. (injection #1–10: 0.5 μl each; injection #11–32: 1 μl each; injection #33–37: 2 μl each). Heats of dilution, obtained by the titration of hHP1β into buffer, were substracted from raw data before analysis. Raw data were integrated, normalized and the apparent heat change (Δq) of the reaction was plotted against the molecular ratio using the Origin software. For the determination of apparent enthalpy changes (ΔHapp), the molar association constant (KA), and the stoichiometry (n) of the interaction, non-linear least-square fitting of the Δq values was performed by the Origin software using a binding model of one set of identical binding sites.
Supplementary Table 1: Summary of conditions used in the different experiments of this study.
experiment result modification template Temp. [NaCl] [MgCl2] […]
(In general: ITC needs no label: the signal is the heat of the interaction.)

Regarding “hHP1β WT: recombinant human heterochromatin protein 1β (GenBank NM_001127228), 185 aa”, the “concentration sufficient for maximal chromatin clustering” value with H3K9me3 oligonucleosomes (150 mM NaCl) came to 5 µM. The EC50 with H3K9me3 oligonucleosomes (150 mM NaCl, 4°C, read-out: half-maximal effect, chromatin precipitation assay) amounted to 0.4 µM. Besides, in the assay on H3K9me3 oligonucleosomes (150 mM NaCl), the “chromatin clustering/aggregation, H3K9me3” value is reported as “efficiently aggregated H3K9me3”. The “salt concentration above which hHP1β induces clustering” value in the assay on H3K9me3 oligonucleosomes (salt titration, saturating hHP1β WT, 2.5 nM oligonucleosomes) is reported as “above 50 mM NaCl”. Also, in the assay on H3K9me3 oligonucleosomes (stepwise precipitation and resolubilization), the reversibility of aggregation result is “generally reversible”. The “better binding at the higher compared with the lower salt concentration” value in the assay with H3KC9me3 mononucleosome (150 mM versus 20 mM NaCl) is 2.7 fold. In addition, the Kd on H3KC9me3 mononucleosome (20 mM NaCl) stood at 59 ± 8 µM; on H3KC9me3 mononucleosome (150 mM NaCl) it was 22 ± 8 µM.
Turning to “hHP1β I161A: CSD point mutant of hHP1β incapable of dimerization”, the “chromatin clustering/aggregation, H3K9me3” value in the assay on H3K9me3 oligonucleosomes (150 mM NaCl) is recorded as “failed to induce the aggregation of oligonucleosomes”; in the assay on H3K9me3 oligonucleosomes (150 mM NaCl, listed as I161A) it was “neither the I161A mutant, nor the isolated CD or CSD had any effect on modified or unmodified chromatin”. Moreover, the Kd amounted to 223 ± 30 µM on H3KC9me3 mononucleosome (20 mM NaCl) and 58 ± 17 µM at H3KC9me3 mononucleosome (150 mM NaCl).
